Assay results published in patent publication US11375716B2, “Acetyl-CoA carboxylase modulators” (Monsanto Technology LLC, priority 2013, dated 2022).
Like-named read-outs stand apart in the source and are kept apart here.

What was measured:
[1] = target: Ustilago maydis acetyl CoA carboxylase (ACCase) (Ustilago maydis, UniProt A0A0D1DYD5); test: ACCase enzymatic assay (PK/LDH-coupled, NADH OD340); type: biochemical
Protocol: Ustilago maydis acetyl CoA carboxylase (ACCase) was cloned, expressed, and purified as described (Weatherly et al, Biochem. J., 2004) and the test compounds were tested in a 96-well plate format. Primary in vitro screening consisted of obtaining dose response data at 100, 33, 10, and 1 μM inhibitor. Actives in the primary screen were re-tested to establish IC50 values.
Direct detection of the conversion of acetyl CoA to malonyl CoA by ACCase was not feasible, but during this process ATP is converted to ADP which allowed for detection through a standard reaction coupling with ADP recycling to the oxidation of NADH. Thus, ACCase activity was measured via kinetic OD340 measurements of the conversion of NADH to NAD in a coupled reaction involving the conversion of phosphoenolpyruvate (PEP) to lactate.
The complete 200 ul reaction mixture contained 52.5 mM HEPES (pH8), 2.625 mM MgCl2, 1 mM ATP, 0.525 mM DTT, 11 mM NaHCO3, 1% DMSO with or without inhibitor, lx pyruvate kinase/lactate dehydrogenase (PK/LDH), 0.3 mM NADH, 0.5 mM PEP, and 5 μg ACCase. The reactions were incubated at 30° C. for 10 minutes and then initiated by the addition of 0.33 mM acetyl CoA. The initiated reactions were read immediately via plate reader at OD340 and kinetic readings were acquired every 20 s for 15 minutes while keeping the temperature at 30° C.
A slope of the kinetic curve was determined by using the 2 to 7 minute data which was then calculated as percent inhibition relative to the no inhibitor control.
The primary screens were conducted in duplicate and the IC50's conducted in triplicate. Averages were reported along with standard deviation calculation to generate error bars.
Each plate contained its own controls and consisted of a DMSO only control, 5-fold titration series of soraphen from 2 μM to 3.2 nM, and an ADP coupled reaction control.
In order to effectively screen out non-specific modulators of pyruvate kinase and lactate dehydrogenase (the coupled portion of the reaction), a PK/LDH inhibition test was developed. The complete 200 μl reaction mixture contained 52.5 mM HEPES (pH8), 2.625 mM MgCl2, 0.525 mM DTT, 11 mM NaHCO3, 1% DMSO with or without inhibitor, 1× pyruvate kinase/lactate dehydrogenase (PK/LDH), 0.3 mM NADH, and 0.5 mM PEP. The reactions were incubated at 30° C. for 10 minutes and then initiated by the addition of 66 μM ADP. The initiated reactions were read immediately via plate reader at OD340 and kinetic readings were acquired every 20 s for 15 minutes while remaining at 30° C.
A slope of the kinetic curve was determined by using the 2 to 7 minute data which was then calculated as percent inhibition relative to the no inhibitor control. Those compounds which had no significant PK/LDH inhibition at or above the IC50 in the ACCase assay, were considered to be valid modulators of only ACCase.

Botrytis cinerea = test: Fungal growth inhibition assay, B. cinerea; type: cell-based
From the text: Spores were isolated from previously sub-cultured plates of Botrytis cinerea, Phytophthora capsici, Fusarium moniliforme, Fusarium viguliforme, Collectotrichum graminicola, and Diplodia maydis. All spores were filtered and collected in a sterile glass bowl to isolate the spores from the mycelia. The isolation and sub-culture plate condition for each pathogen is described below.
Spore isolation for B. cinerea: A 2-3 week old V8 (17%)+CaCO3 (3 g/L)+20 g agar plate was removed from room temperature and the mycelia were treated with 5-10 ml of filter sterilized Triton X 100 (0.05%). The mycelia were scraped to re-suspend the spores. The spores were then collected in a sterile filter bowl containing a fluted piece of filter paper and poured into a conical tube.
After spore isolation, pathogen spores were counted on a hemocytometer to calculate the spores/ml. In 17% V8 liquid media containing 3 g/L CaCO3, isolated spores were diluted to individual concentrations based on the growth curves at 48 hours of each pathogen. […]
In a 96-well plate the spore solution, chemistries, and controls were combined to make the final solution concentrations mentioned above. Upon addition of the chemistry, an OD600 reading was done to assess chemical precipitation. […] Plate readings were repeated at 24 and 48 hrs. […]

[2] = Table 1A, read-out: ACCase Inhibitory Activity IC50
[3] = Table 1B, racemates and single enantiomers, read-out: ACCase Inhibitory Activity of Racemic Mixtures and Single Enantiomers IC50

Sequence of Ustilago maydis acetyl CoA carboxylase (ACCase) (A0A0D1DYD5 1-2185): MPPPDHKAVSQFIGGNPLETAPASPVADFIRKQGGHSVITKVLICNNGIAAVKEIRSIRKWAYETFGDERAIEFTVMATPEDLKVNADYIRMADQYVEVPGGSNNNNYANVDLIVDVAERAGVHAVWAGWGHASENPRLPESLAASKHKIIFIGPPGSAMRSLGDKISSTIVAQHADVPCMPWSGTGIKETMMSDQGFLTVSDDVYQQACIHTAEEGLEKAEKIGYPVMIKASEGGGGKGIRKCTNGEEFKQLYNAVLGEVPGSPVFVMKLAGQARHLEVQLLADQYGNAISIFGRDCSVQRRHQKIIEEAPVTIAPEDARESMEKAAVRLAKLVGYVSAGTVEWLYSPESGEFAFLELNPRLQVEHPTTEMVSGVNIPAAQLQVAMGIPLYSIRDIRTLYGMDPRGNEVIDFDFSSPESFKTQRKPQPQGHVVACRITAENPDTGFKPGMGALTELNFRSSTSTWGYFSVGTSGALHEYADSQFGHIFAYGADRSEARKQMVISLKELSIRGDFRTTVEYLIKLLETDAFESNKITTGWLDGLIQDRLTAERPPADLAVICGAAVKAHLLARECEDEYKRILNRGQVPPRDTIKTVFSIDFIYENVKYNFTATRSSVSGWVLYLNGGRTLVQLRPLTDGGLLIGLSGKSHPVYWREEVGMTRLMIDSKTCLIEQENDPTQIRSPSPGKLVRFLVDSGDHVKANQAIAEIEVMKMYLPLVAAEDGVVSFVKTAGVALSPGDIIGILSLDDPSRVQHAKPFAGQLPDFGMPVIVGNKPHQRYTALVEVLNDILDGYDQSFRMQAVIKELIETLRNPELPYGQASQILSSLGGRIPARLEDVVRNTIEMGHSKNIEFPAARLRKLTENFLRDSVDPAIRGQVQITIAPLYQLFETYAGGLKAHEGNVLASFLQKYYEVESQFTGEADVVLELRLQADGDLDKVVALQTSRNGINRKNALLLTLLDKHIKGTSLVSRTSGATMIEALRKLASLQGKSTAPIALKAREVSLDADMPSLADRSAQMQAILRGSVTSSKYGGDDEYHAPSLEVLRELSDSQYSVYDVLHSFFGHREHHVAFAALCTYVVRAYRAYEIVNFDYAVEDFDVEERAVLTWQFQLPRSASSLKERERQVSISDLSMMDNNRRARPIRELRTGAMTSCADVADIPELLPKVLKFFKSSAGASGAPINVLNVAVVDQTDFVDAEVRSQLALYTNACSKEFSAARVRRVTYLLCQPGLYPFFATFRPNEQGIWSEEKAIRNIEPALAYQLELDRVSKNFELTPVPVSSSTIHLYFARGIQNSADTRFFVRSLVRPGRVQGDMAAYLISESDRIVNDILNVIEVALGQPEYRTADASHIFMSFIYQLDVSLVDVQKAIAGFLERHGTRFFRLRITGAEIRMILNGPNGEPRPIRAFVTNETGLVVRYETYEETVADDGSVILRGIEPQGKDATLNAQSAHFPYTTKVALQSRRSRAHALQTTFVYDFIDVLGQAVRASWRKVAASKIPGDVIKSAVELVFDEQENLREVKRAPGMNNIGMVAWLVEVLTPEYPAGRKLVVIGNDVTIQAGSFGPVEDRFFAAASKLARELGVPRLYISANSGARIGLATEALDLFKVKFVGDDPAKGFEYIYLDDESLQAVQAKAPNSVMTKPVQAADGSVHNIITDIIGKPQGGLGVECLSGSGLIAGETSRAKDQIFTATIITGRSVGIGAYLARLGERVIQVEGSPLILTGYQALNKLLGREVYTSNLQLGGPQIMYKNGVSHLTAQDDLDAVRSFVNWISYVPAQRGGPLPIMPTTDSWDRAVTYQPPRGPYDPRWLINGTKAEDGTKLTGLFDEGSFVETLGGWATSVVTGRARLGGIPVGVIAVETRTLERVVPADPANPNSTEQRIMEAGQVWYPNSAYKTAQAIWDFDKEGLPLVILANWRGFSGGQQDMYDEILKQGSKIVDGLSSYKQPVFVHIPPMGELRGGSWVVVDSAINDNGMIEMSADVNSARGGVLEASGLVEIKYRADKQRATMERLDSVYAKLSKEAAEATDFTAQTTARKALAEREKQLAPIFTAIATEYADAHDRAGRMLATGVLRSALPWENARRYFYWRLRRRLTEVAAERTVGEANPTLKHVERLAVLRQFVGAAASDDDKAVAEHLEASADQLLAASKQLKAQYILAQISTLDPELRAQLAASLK

Compound	IC50 [1, 2] [nM]	B. cinerea % growth inhibition at 48 hours (Botrytis cinerea; 2 ppm) [%]	B. cinerea % growth inhibition at 48 hours (Botrytis cinerea; 10 ppm) [%]	IC50 [1, 3] [nM]
2-((3-cyano-4-(4-methoxyphenyl)-6-(1-oxidothiophen-2-yl)pyridin-2-yl)oxy)-2-phenylacetic acid [Formula Ia-xxviii]	196	14	27	
N#Cc1c(-c2cccs2)cc(-c2cccs2)nc1SC(C(=O)O)c1ccccc1 (racemic) [Formula Ia-iii, 2-((3-cyano-4,6-di(thiophen-2-yl)pyridin-2-yl)thio)-2-phenylacetic acid]	616			439
COc1ccc(-c2cc(-c3cccs3)nc(SC(C(=O)O)c3ccccc3)c2C#N)cc1 (racemic) [Formula Ia-xiv, 2-((3-cyano-4-(4-methoxyphenyl)-6-(thiophen-2-yl)pyridin-2-yl)thio)-2-phenylacetic acid]	60			
N#Cc1c(C(F)(F)F)cc(-c2cccs2)nc1S[C@H](C(=O)O)c1ccccc1 (single isomer, unassigned) [Formula Ia-ii-e2, 2-((3-cyano-6-(thiophen-2-yl)-4-(trifluoromethyl)pyridin-2-yl)thio)-2-phenylacetic acid]				1210
